Measurements: patent US20240150377A1, “MODULATORS OF CYSTIC FIBROSIS TRANSMEMBRANE CONDUCTANCE REGULATOR” (VERTEX PHARMACEUTICALS INCORPORATED, priority 2020, published 2024)
Like-named read-outs stand apart in the source and are kept apart here.

Molecular target: CFTR (Homo sapiens, UniProt P13569)
Assay: Membrane potential dye, Enteroid Assay A
Assay type: cell-based
Details: for Ent. A Max Activity: chloride transport as % of triple combination control (Enteroid Assay A); for EC50: human enteroid cells, 18-24 hours, acute 10 μM forskolin and 300 nM ivacaftor, read-out: Ent. A EC50
Method in brief: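 % Activity: chloride transport relative to a 3 μM/3 μM corrector pair plus 300 nM acute potentiator control. Primary human enteroid cells, 18-24 h compound exposure at 37 °C; membrane potential dye (methyl oxonol) fluorescence over 15 min after forskolin (10 μM)/IBMX (100 μM)/Compound III (300 nM) stimulation in chloride-free buffer.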

CFTR, sequence (P13569 with tags, fused parts or gaps DEL508-508): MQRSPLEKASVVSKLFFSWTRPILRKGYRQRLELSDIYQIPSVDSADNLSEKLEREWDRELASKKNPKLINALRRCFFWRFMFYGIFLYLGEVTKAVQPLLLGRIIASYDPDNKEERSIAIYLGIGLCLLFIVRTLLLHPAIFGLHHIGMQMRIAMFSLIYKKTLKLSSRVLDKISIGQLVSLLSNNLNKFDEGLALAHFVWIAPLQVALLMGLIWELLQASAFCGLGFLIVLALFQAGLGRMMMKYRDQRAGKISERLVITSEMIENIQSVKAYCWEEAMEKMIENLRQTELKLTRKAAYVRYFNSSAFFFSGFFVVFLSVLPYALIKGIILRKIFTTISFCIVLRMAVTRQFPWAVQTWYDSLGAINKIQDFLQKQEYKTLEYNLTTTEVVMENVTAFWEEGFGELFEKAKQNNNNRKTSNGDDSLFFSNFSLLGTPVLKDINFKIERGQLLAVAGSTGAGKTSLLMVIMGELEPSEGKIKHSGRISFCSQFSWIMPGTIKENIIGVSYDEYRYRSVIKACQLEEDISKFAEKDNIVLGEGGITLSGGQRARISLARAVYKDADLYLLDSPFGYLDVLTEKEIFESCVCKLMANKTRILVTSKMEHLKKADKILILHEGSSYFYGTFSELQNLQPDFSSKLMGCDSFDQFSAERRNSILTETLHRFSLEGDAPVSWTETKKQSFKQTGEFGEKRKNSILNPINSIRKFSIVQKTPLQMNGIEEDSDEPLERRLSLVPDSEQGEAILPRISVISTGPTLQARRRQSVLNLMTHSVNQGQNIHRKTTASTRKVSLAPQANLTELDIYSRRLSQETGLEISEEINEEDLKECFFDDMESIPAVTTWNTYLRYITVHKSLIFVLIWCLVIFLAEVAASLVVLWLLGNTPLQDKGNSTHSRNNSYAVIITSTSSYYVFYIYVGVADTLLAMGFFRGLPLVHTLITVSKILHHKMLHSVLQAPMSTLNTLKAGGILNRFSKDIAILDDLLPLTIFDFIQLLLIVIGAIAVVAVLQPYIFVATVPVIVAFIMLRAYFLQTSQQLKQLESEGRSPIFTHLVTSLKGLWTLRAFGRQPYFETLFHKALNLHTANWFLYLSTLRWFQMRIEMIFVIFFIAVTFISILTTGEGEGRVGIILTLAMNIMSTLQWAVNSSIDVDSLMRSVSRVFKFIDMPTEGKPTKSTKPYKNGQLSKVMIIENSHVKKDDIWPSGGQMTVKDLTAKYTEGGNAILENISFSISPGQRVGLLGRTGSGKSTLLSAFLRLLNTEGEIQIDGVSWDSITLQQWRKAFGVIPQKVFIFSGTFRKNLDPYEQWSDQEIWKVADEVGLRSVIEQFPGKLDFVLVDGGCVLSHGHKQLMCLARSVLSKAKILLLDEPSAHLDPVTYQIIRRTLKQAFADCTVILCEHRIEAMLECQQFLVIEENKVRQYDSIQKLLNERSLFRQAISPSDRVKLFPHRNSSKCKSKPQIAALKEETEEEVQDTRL

| Compound | Ent. A Max Activity (Table 6) | EC50 (Table 6) | Ent. A Max Activity (Table 7) | EC50 (Table 7) |
| --- | --- | --- | --- | --- |
| CCC(CC)CN1C(=O)c2cccc(c2)S(=O)(=O)Nc2nc(cc(-c3c(C)cccc3C)n2)OC[C@H]1CC(C)C [Compound 990] | +++ (+++ is >60%) | < 1 µM |  |  |
| Cc1cccc(C)c1-c1cc2nc(n1)NS(=O)(=O)c1cccc(c1)C(=O)N(C)[C@@H](CC(C)C)[C@H](c1ccc(C(C)(C)C)nc1)O2 [Compound 512] | + (+ is <30%) |  |  |  |
| Cc1cccc(C)c1-c1cc2nc(n1)NS(=O)(=O)c1cccc(c1)C(=O)N(C)CC(CN(C)CCC(C)(C)C)O2 (stereo not drawn) [Compound 1014] | +++ (+++ is >60%) | 3 to 30 µM |  |  |
| Cc1cccc(C)c1-c1cc2nc(n1)NS(=O)(=O)c1cccc(c1)C(=O)N(Cc1ccccc1)C(CCC1(C(F)(F)F)CC1)CO2 (stereo not drawn) [Compound 689] | +++ (+++ is >60%) | < 1 µM |  |  |
| Cc1cccc(C)c1-c1cc2nc(n1)NS(=O)(=O)c1cccc(c1)C(=O)N(Cc1cccnc1)[C@H](CC(C)C)CO2 [Compound 364] | +++ (+++ is >60%) | < 1 µM |  |  |
| CNC(=O)c1ccc(CN2C(=O)c3cccc(c3)S(=O)(=O)Nc3nc(cc(-c4c(C)cccc4C)n3)OC[C@H]2CC(C)C)cn1 [Compound 93, 5-{[(11R)-6-(2,6-dimethylphenyl)-11-(2-methylpropyl)-2,2,13-trioxo-9-oxa-2λ^6-thia-3,5,12,19-tetraazatricyclo[12.3.1.14,8]nonadeca-1(18),4(19),5,7,14,16-hexaen-12-yl]methyl}-N-methylpyridine-2-carboxamide] |  |  | +++ (+++ is >60%) | < 1 µM |
| Cc1cccc(C)c1-c1cc2nc(n1)NS(=O)(=O)c1cccc(c1)C(=O)N(Cc1ccc(N3CCCC(O)C3)nc1)[C@H](CC(C)C)CO2 (stereo partly drawn) [Compound 963] |  |  | +++ (+++ is >60%) | < 1 µM |
| Cc1cccc(C)c1-c1cc2nc(n1)NS(=O)(=O)c1cccc(c1)C(=O)N(Cc1ccc(N3CCC(C(F)(F)F)CC3)nc1)[C@H](CC(C)C)CO2 [Compound 969] |  |  | ++ (++ is 30-60%) | < 1 µM |
| Cc1cccc(C)c1-c1cc2nc(n1)NS(=O)(=O)c1cccc(c1)C(=O)N(C)CC(c1ccc(C(N)=O)cc1)O2 (stereo not drawn) [Compound 666] | + (+ is <30%) |  |  |  |
| Cc1cccc(C)c1-c1cc2nc(n1)NS(=O)(=O)c1cccc(c1)C(=O)N(CCC1CCOCC1)[C@H](CC(F)(F)F)CO2 [Compound 983] |  |  | ++ (++ is 30-60%) | < 1 µM |
| Cc1cccc(C)c1-c1cc2nc(n1)NS(=O)(=O)c1cccc(c1)CN(C(=O)CC(C)C)[C@H](CC(C)C)CO2 [Compound 1049] |  |  | + (+ is <30%) |  |
| Cc1cccc(C)c1-c1cc2nc(n1)NS(=O)(=O)c1cccc(c1)C(=O)N(CCC(C1CC1)C1CC1)[C@H](CC(C)C)CO2 [Compound 413] |  |  | +++ (+++ is >60%) | < 1 µM |
| Cc1cccc(C)c1-c1cc2nc(n1)NS(=O)(=O)c1cccc(c1)C(=O)N(CCC(C)(C)C)[C@H](CC(F)(F)F)CO2 [Compound 984] |  |  | ++ (++ is 30-60%) | 1 to 3 µM |
| COCCN1Cc2cccc(c2)S(=O)(=O)Nc2nc(cc(-c3c(C)cccc3C)n2)OC[C@H]1CC(C)C [Compound 1042] |  |  | + + | < 1 µM |
| Cc1cccc(C)c1-c1cc2nc(n1)NS(=O)(=O)c1cccc(c1)C(=O)N(Cc1ccccc1)[C@H](CCC1(C(F)(F)F)CC1)CO2 [Compound 853] | ++ (++ is 30-60%) | < 1 µM |  |  |
| Cc1cccc(C)c1-c1cc2nc(n1)NS(=O)(=O)c1cccc(c1)CN(C(=O)Cc1ccccc1)[C@H](CC(C)C)CO2 [Compound 1051] |  |  | ++ (++ is 30-60%) | 1 to 3 µM |
| Cc1cccc(C)c1-c1cc2nc(n1)NS(=O)(=O)c1cccc(c1)C(=O)N(Cc1cncn1C)[C@H](CC(C)C)CO2 [Compound 365] | +++ (+++ is >60%) | 1 to 3 µM |  |  |
| Cc1cccc(C)c1-c1cc2nc(n1)NS(=O)(=O)c1cccc(c1)C(=O)N(Cc1ccc(N3CCC(C)(C)CC3)nc1)[C@H](CC(C)C)CO2 [Compound 940] |  |  | +++ (+++ is >60%) | < 1 µM |
| Cc1cccc(C)c1-c1cc2nc(n1)NS(=O)(=O)c1cccc(c1)C(=O)N(C)C[C@H](c1ccccc1)O2 [Compound 673] | + (+ is <30%) | 3 to 30 µM |  |  |
| Cc1cccc(C)c1-c1cc2nc(n1)NS(=O)(=O)c1cccc(c1)C(=O)N(Cc1ccc(N3CCC(F)CC3)nc1)[C@H](CC(C)C)CO2 [Compound 973] |  |  | +++ (+++ is >60%) | < 1 µM |

| Compound | Ent. A Max Activity (Table 6) | EC50 (Table 6) | Ent. A Max Activity (Table 7) | EC50 (Table 7) |
| --- | --- | --- | --- | --- |
| Cc1cccc(C)c1-c1cc2nc(n1)NS(=O)(=O)c1cccc(c1)C(=O)N(C)C[C@H](c1ccc(-c3ccc(C(C)(C)C)cc3)cn1)O2 [Compound 509] |  |  | + (+ is <30%) |  |
| Cc1cccc(C)c1-c1cc2nc(n1)NS(=O)(=O)c1cccc(c1)C(=O)N(C)[C@H](c1ccc(C(C)(C)C)cc1)CO2 [Compound 1011] |  |  | +++ (+++ is >60%) | < 1 µM |
| Cc1cccc(C)c1-c1cc2nc(n1)NS(=O)(=O)c1cccc(c1)C(=O)N(Cc1cccc(C#N)c1)[C@H](CC(C)C)CO2 [Compound 859] | +++ (+++ is >60%) | < 1 µM |  |  |
| Cc1cccc(C)c1-c1cc2nc(n1)NS(=O)(=O)c1cccc(c1)C(=O)N(Cc1ccccc1)C(C(=O)NC(C)(C)C)CO2 (stereo not drawn) [Compound 44, 12-benzyl-N-tert-butyl-6-(2,6-dimethylphenyl)-2,2,13-trioxo-9-oxa-2λ^6-thia-3,5,12,19-tetrazatricyclo[12.3.1.14,8]nonadeca-1(18),4(19),5,7,14,16-hexaene-11-carboxamide] | ++ (++ is 30-60%) | 3 to 30 µM |  |  |
| COC1CCC(CC(=O)N2Cc3cccc(c3)S(=O)(=O)Nc3nc(cc(-c4c(C)cccc4C)n3)OC[C@H]2CC(C)C)CC1 (stereo partly drawn) [Compound 1045] |  |  | + (+ is <30%) |  |
| Cc1cccc(C)c1-c1cc2nc(n1)NS(=O)(=O)c1cccc(c1)C(=O)N(C)CC(c1ccc(C3=CCOCC3)cc1)O2 (stereo not drawn) [Compound 675] | ++ (++ is 30-60%) | < 1 µM |  |  |
| COc1ccc(CN2C(=O)c3cccc(c3)S(=O)(=O)Nc3nc(cc(-c4c(C)cccc4C)n3)OC[C@H]2C)cc1 [Compound 986] |  |  | ++ (++ is 30-60%) | 1 to 3 µM |
| Cc1cccc(C)c1-c1cc2nc(n1)NS(=O)(=O)c1cccc(c1)C(=O)N(CC1CCN(C)CC1)[C@H](CC(C)(C)C)CO2 [Compound 426] | +++ (+++ is >60%) | 1 to 3 µM |  |  |
| COc1ccc(CN2C(=O)c3cccc(c3)S(=O)(=O)Nc3nc(cc(-c4c(C)cccc4C)n3)OC[C@H]2CC2(C(F)(F)F)CC2)cc1 [Compound 678] |  |  | ++ (++ is 30-60%) | < 1 µM |
| Cc1cccc(C)c1-c1cc2nc(n1)NS(=O)(=O)c1cccc(c1)C(=O)N(CCN1CCOCC1)[C@H](CC(C)C)CO2 [Compound 1108] | +++ (+++ is >60%) | < 1 µM |  |  |
| CCc1nccc(CN2Cc3cccc(c3)S(=O)(=O)Nc3nc(cc(-c4c(C)cccc4C)n3)OC[C@H]2CC(C)C)n1 [Compound 1035] |  |  | ++ (++ is 30-60%) | < 1 µM |
| Cc1cccc(C)c1-c1cc2nc(n1)NS(=O)(=O)c1cccc(c1)C(=O)N(Cc1ccnn1C)[C@H](CC(C)C)CO2 [Compound 345] | +++ (+++ is >60%) | < 1 µM |  |  |
| Cc1cccc(C)c1-c1cc2nc(n1)NS(=O)(=O)c1cccc(c1)C(=O)N(CC1CCCC1)[C@H](CC(C)C)CO2 [Compound 350] | +++ (+++ is >60%) | < 1 µM |  |  |
| Cc1cccc(C)c1-c1cc2nc(n1)NS(=O)(=O)c1cccc(c1)C(=O)N(Cc1ccc(N3CCN(C)CC3)nc1)[C@H](CC(C)C)CO2 [Compound 854] | +++ (+++ is >60%) | < 1 µM |  |  |
| Cc1cccc(C)c1-c1cc2nc(n1)NS(=O)(=O)c1cccc(c1)CN(CCn1c(=O)oc3ccccc31)[C@H](CC(C)C)CO2 [Compound 1039] |  |  | ++ (++ is 30-60%) | < 1 µM |
| Cc1cccc(C)c1-c1cc2nc(n1)NS(=O)(=O)c1cccc(c1)C(=O)N(Cc1ccc(C3=CCN(C)CC3)nc1)[C@H](CC(C)C)CO2 [Compound 967] |  |  |  | < 1 µM |
| CNc1ccc(CN2C(=O)c3cccc(c3)S(=O)(=O)Nc3nc(cc(-c4c(C)cccc4C)n3)OC[C@H]2CC(C)C)cn1 [Compound 857] | +++ (+++ is >60%) | < 1 µM |  |  |
| CCN(CCO)c1ccc(CN2C(=O)c3cccc(c3)S(=O)(=O)Nc3nc(cc(-c4c(C)cccc4C)n3)OC[C@H]2CC(C)C)cn1 [Compound 935] |  |  | +++ (+++ is >60%) | < 1 µM |
| Cc1cccc(C)c1-c1cc2nc(n1)NS(=O)(=O)c1cccc(c1)C(=O)N(Cc1ccc(OCCN(C)C)nc1)[C@H](CC(C)C)CO2 [Compound 942] |  |  | +++ (+++ is >60%) | < 1 µM |
